US20260242359A1, “IRHOM2 INHIBITORS AND USES THEREOF” (NEW YORK SOCIETY FOR THE RELIEF OF THE RUPTURED AND …, priority 2023, published 2026)

Key:
[1] = test system: PMA-induced release of endogenous TGFα from human PC3 prostate cancer cells; test: Example 17: ELISA-based TGFα release assay, PMA-induced, PC3 prostate cancer cells; format: cell-based; conditions: 10 μM final concentration, PMA 25 ng/ml, delta Buffer stimulated vs unstimulated = 100% inhibition; for inhibition at 10 µM: Homo sapiens
Experimental: In the following study, ELISA-based TGFα release assays were performed to analyze the inhibitory effects of Compounds 1, 2, 3, 4, 5, and 7 on PMA-induced release of endogenous TGFα, from human PC3 prostate cancer cells. The ELISA-based TGFα release assay that was used in this example is described below.
In brief, on day 1, Nunc black MaxiSorp® 96-well plates (Thermo Fisher Scientific, USA) were coated overnight with 100 μl per well of goat anti-human TGFα capture antibody (provided as part of the DuoSet ELISA kit) at 0.4 μg/ml TBS at 4° C.
75,000 PC3 (European Collection of Authenticated Cell Cultures, UK) cells in 100 μl of normal growth medium were seeded in each well of F-bottom 96-well cell culture plates (Corning, USA) and incubated at 37° C., 5% CO2 overnight. On day 2, the capture antibody solution was removed and MaxiSorp® plates were blocked with 300 μl per well of TBS, 1% BSA at room temperature for 5 hours. Meanwhile, cells were washed twice with PBS and pre-incubated in 80 μl of OptiMEM medium with 20 μl per well of OptiMEM medium supplemented with Batimastat (BB94, Abcam, UK) at 50 μM as positive control (for a final concentration of 10 μM in the resulting 100 μl sample volume), compounds of the invention at 50 μM (for a final concentration of 10 μM in the resulting 100 μl sample volume) and in case of Buffer stimulated and unstimulated controls with DMSO (Carl Roth, Germany) at 50 μM (for a final concentration of 10 μM in the resulting 100 μl sample volume) at 37° C., 5% CO2 for 30 minutes. Subsequently, cells (except those for unstimulated controls) were stimulated with 20 μl per well of PMA (Sigma-Aldrich, USA) at 150 ng/ml in OptiMEM for a final concentration of 25 ng/ml at 37° C., 5% CO2 for 2 hours. In parallel, blocking buffer was removed from the MaxiSorp® plates and plates were washed 4 times with 350 μl TBS-T (Carl Roth, Germany) per well on a 96-head plate washer (Tecan Group, Switzerland). To avoid drying-up, 20 μl TBS were added to each well of the MaxiSorp® plates immediately, followed by the transfer of 80 μl cell-free supernatant per sample. Additionally, 100 μl recombinant human TGFα protein (provided as part of the DuoSet ELISA kit) diluted in TBS at defined concentrations were added to the plate as standard references. Thereafter, 100 μl biotinylated goat anti-human TGFα detection antibody (provided as part of the DuoSet ELISA kit) at 37.5 ng/ml in TBS were added per well and, protected from direct light, plates were incubated at room temperature for 2 hours. After 4 times washing with 350 μl TBS-T (Carl Roth, Germany) per well on a 96-head plate washer (Tecan Group, Switzerland) and careful removal of all buffer traces after the fourth cycle, 100 μl streptavidin-AP (R&D Systems, USA) diluted 1:10,000 in TBS were added to each well and, again protected from direct light, plates were incubated at room temperature for 30 minutes. Following another round of 4 times washing with 350 μl TBS-T (Carl Roth, Germany) per well on a 96-head plate washer (Tecan Group, Switzerland) and careful removal of all buffer traces after the fourth cycle, 100 μl AttoPhos substrate solution (Promega, USA) per well was added for incubation in the dark at room temperature for 1 hour. Using an infinite M1000 (Tecan Group, Switzerland) microplate reader, the fluorescence of each well was collected at an excitation wavelength of 435 nm and an emission wavelength of 555 nm.
The delta between Buffer stimulated and Buffer unstimulated was defined 100% inhibition.

[2] = test system: PMA-stimulated TGFα release from HEK-293 cells (substrate of iRhom1/ADAM17 and iRhom2/ADAM17); test: Counter screen (Example 4b): PMA-stimulated TGFα release from HEK-293 cells, AP readout; format: cell-based; conditions: Homo sapiens, HEK293, HEK-293 cells expressing TGFα-AP, PMA 100 ng/mL, 2 h
Experimental: A tertiary counterscreen was also performed to monitor the release of TGFα, which is a substrate of iRhom1/ADAM17 and iRhom2/ADAM17, so its release should not be blocked by an iRhom2-selective inhibitor (Maretzky T et al. (July 2013), “iRhom2 controls the substrate selectivity of stimulated ADAM117-dependent ectodomain shedding”, PNAS 110(28): 11433-11438; and Li X et al. (May 2015), “iRhoms 1 and 2 are essential upstream regulators of ADAM17-dependent EGFR signaling”, PNAS 112(19): 6080-6085).
Expression plasmids for alkaline phosphatase (AP)-fused human KL2 and TGFα had been previously designed and generated through gene synthesis followed by subcloning into the pcDNA3.1(+)/Hygro expression vector. […] Subsequently, DNA amplifications were performed to obtain sufficient amounts of the expression vectors. The quality of DNA and gene sequences were confirmed through restriction digest and Sanger sequencing. In parallel, cell culture of HEK-293 cells was initiated. Master and working cell banks were prepared, scaled up and transfected with the respective constructs by electroporation. During cell culturing, cell density and viability were monitored to ensure optimal conditions for the transfections. After PMA stimulation, AP-coupled KL2 or TGFα were detected by measurement of AP activity in the supernatant.
After electroporation, cells were further cultured in presence of selection antibiotics, hygromycin B, to generate stably transfected polyclonal cell pools. For both assays, KL2 and TGFα shedding, the respective selected pool turned out to be suitable. Final assay conditions were determined for the selected pools. For all experiments, batimastat (BB94, 10 μM) was used as positive control for full inhibition of KL2 or TGFα shedding.
The wells of sterile 384-well flat bottom clear plates for TGF-AP assays were coated with 10 μL of 0.1 mg/mL poly-d-lysine for 3-4 hr at 25° C. or overnight at 4° C., then washed 2× with PBS and patted dry. 60 μL of cells (20,000/well) were added to the sterile 384-well plate and incubated in Optimem (with 2% FCS and 1% Pen-strep) overnight at 37° C. (5% CO2). After incubation overnight, 55 μL medium were removed with a BioTek EL406 and 10 μL of prediluted compounds were added to the cells for a final concentration of 20 μM. After incubation for 15 min, 15 μL of PMA (100 ng/mL final conc.) were added. The cells were incubated for 2 h at 37° C. (5% CO2). Then, the plates were centrifuged for 5 min at 1000 rpm and 12 μL of the supernatant was transferred to a fresh 384 well plate. 12 μL of pNPP p-nitrophenyl phosphate (final 1 M pNPP) was added. AP reaction was performed for 1 h at 37° C. The reaction was stopped by addition of 12 μL of NaOH (1 M final conc.), the plates were centrifuged to remove air bubbles and the absorbance of pNP was measured at 405 nm.

## CNC(=O)[C@H](Cc1ccccc1)NC(=O)[C@H](CC(C)C)[C@H](CSc1cccs1)C(=O)NO [Batimastat, reference compound]
[1]; 2 hours
  inhibition of PMA-induced release of TGFα from PC3 cells: 102.5%
[1]; PC-3, 2 h
  inhibition at 10 µM: 104%

## CCC(=O)NCCc1c(/C=C2/C(=O)NC(=O)N(c3ccc(C)cc3C)C2=O)[nH]c2ccccc12 [Compound 1]
[1]; PC-3, 2 hours
  inhibition at 10 µM: 25.5%

## CCOC(=O)c1ccc(Nc2nc3nonc3n3nnnc23)cc1 [Compound 2]
[1]; PC-3, 2 h
  inhibition at 10 µM: 9.1%

## O=C(c1c(Cl)cccc1Cl)N1CCC(Cc2ccc(F)cc2)CC1 [Compound 3]
[2]
  IC50: > 40 µM
[1]; PC-3, 2 h
  inhibition at 10 µM: 12.5%

## Cc1c(C(=O)NCc2cccs2)sc(=O)n1Cc1ccccc1 [Compound 4]
[2]
  IC50: > 40 µM
[1]; PC-3, 2 h
  inhibition at 10 µM: 14.1%

## Cc1c(C(=O)NCc2cccs2)sc(=O)n1Cc1ccccc1F [Compound 5]
[2]
  IC50: > 40 µM
[1]; PC-3, 2 h
  inhibition at 10 µM: 11.3%

## Cc1c(C(=O)NCc2ccco2)sc(=O)n1Cc1ccccc1F [Compound 7]
[2]
  IC50: > 40 µM
[1]; PC-3, 2 h
  inhibition at 10 µM: 27.3%
